Source: paper PMC6925310 (SLAS discovery : advancing life sciences R & D, 2019)
Values joined by “and” are separate entries in the source; they are usually repeats but may differ in a detail not shown here. Equal entries are not always repeated. “Also recorded” adds a separate entry of the source. Where two headings read alike, the source gives them in different places. Each block holds one compound with its values, some of them ahead of it.

How the values were obtained:
P. aeruginosa LysRS [1] = target: T1, P. aeruginosa LysRS (Pseudomonas aeruginosa, UniProt Q9HXU0); experiment: SPA-based tRNA aminoacylation assay; type: biochemical
T1 sequence (Q9HXU0 1-501): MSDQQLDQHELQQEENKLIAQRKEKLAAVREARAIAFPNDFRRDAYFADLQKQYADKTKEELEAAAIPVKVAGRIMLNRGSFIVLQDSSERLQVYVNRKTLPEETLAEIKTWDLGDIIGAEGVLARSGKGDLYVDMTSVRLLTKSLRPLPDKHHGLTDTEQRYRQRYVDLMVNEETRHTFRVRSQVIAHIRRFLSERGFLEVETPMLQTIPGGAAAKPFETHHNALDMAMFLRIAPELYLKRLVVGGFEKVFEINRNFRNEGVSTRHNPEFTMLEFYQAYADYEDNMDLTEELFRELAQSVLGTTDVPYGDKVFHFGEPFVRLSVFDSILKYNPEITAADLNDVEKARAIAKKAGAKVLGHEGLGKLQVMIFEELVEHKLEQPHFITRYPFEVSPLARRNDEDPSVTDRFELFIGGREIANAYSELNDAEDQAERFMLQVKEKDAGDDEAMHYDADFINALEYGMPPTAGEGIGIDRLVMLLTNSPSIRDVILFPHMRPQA

P. aeruginosa LysRS [2] = target: T1, P. aeruginosa LysRS; experiment: Binding mode; type: biochemical; conditions: for mechanism of inhibition with respect to ATP: IC50 at ATP 25 to 1000 μM, amino acid constant; for mechanism of inhibition with respect to ATP / mechanism of inhibition with respect to lysine: LysRS 0.01 μM; for mechanism of inhibition with respect to lysine: IC50 at lysine 25 to 300 μM, ATP 2.5 mM
M. catarrhalis = experiment: Time-kill kinetic assay; type: cell-based, Moraxella catarrhalis; conditions: 4×MIC, 0 to 24 h
[3] = tested on: human embryonic kidney 293 cells (HEK-293)
[4] = tested on: gram-positive bacterial cultures; conditions: cited from earlier work
[5] = tested on: human embryonic kidney 293 cells (HEK-293); experiment: MTT cytotoxicity assay; conditions: HEK-293, MTT, 25 to 400 μg/mL, 24 h
eukaryotic LysRS = conditions: cited from earlier work
P. aeruginosa LysRS [6] = target: T1, P. aeruginosa LysRS; experiment: ATP:PPi exchange reaction, substrate kinetics; conditions: substrate varied, other substrate held at 2 mM; LysRS 0.1 μM

Structure (SMILES): C=CC1=C(C)/C(=C/c2[nH]c(Cc3[nH]c(/C=C4\NC(=O)C(C)=C4C=C)c(C)c3CCC(=O)O)c(CCC(=O)O)c2C)NC1=O [BM01D09, bilirubin]
- IC50 (P. aeruginosa LysRS [1]): 17 µM
- Ki (P. aeruginosa LysRS [2]): 3.5 µM
- mechanism of inhibition with respect to ATP (P. aeruginosa LysRS [2]): competing with ATP; also recorded: IC50 also increased; also recorded: competitive inhibition
- mechanism of inhibition with respect to ATP (P. aeruginosa LysRS [2]; listed as bilirubin): competitive with ATP
- mechanism of inhibition with respect to lysine (P. aeruginosa LysRS [2]): no change in the IC50
- mechanism of inhibition with respect to lysine (P. aeruginosa LysRS [2]; listed as bilirubin): noncompetitive with lysine
- global mode of inhibition (time-kill) (M. catarrhalis): bacteriostatic
- CC50 relative to MICs against susceptible bacteria [3]: 6-20 fold
- inhibition of growth of gram-positive bacterial cultures [4]: inhibitory

Structure (SMILES): S=C(N/N=C1\CCCc2c1[nH]c1ccc(C3CCCCC3)cc21)Nc1ccccc1 [BT06F11, 1-[(~›E‹)-(6-cyclohexyl-2,3,4,9-tetrahydrocarbazol-1-ylidene)amino]-3-phenylthiourea]
- mechanism of inhibition with respect to ATP (P. aeruginosa LysRS [2]): mechanism other than substrate competition; also recorded: noncompetitive; also recorded: not observed to be competitive
- mechanism of inhibition with respect to lysine (P. aeruginosa LysRS [2]): mechanism other than substrate competition; also recorded: noncompetitive; also recorded: not observed to be competitive
- global mode of inhibition (time-kill) (M. catarrhalis): bactericidal; also recorded: inhibited growth by killing the bacteria
- toxicity to human cell growth (in words) [5]: not toxic at any concentration tested; also recorded: not observed to be toxic

- mechanism of inhibition with respect to lysine (P. aeruginosa LysRS [2]): uncompetitive with the amino acid
- Ki (P. aeruginosa LysRS [2]; read-out: mean Ki, calculated from IC50 values determined at 75 μM lysine and 2.5 mM ATP, multiple determinations): 3.4 µM
Structure (SMILES): O=C(CCCCCCCCC(=O)N/N=C/c1ccc([N+](=O)[O-])o1)N/N=C/c1ccc([N+](=O)[O-])o1 [BT08F04, ~›N‹,~›N‹′-bis[(~›E‹)-(5-nitrofuran-2-yl)methylideneamino]decanediamide]
- mechanism of inhibition with respect to ATP (P. aeruginosa LysRS [2]): competitive with ATP; also recorded: competitive inhibition
- global mode of inhibition (time-kill) (M. catarrhalis): bactericidal; also recorded: inhibited growth by killing the bacteria

Structure (SMILES): C[C@H]1CCC[C@H](C[C@H]2Cc3cc(O)cc(O)c3C(=O)O2)O1 [cladosporin]
- inhibition of eukaryotic LysRS (in words) (eukaryotic LysRS): potent ATP competitive inhibitor

Structure (SMILES): NCCCC[C@H](N)C(=O)O [lysine]
- kcat^obs (P. aeruginosa LysRS [6]): 13 s⁻¹ and 13.3 s⁻¹
